According to ChEMBL document CHEMBL1201862, “PubChem BioAssay data set” (2004):
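Protocol summary: plate cells (96-well), add compound at 5 concentrations, incubate 48 h, interpolate endpoints linearly. The concentration for 50% growth inhibition is given as GI50.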 Calls of active or inactive are those of the source. Cut-off read from the data, not from the text of the source: active = GI50 up to about 1.1 µM and inactive = higher.

Columns and labels:
Test in all cases: growth of human tumour cells (NCI), 48 h
RPMI-8226 = test system: RPMI-8226
KM12 = test system: KM12
COLO 205 = test system: COLO 205
NCI-H522 = test system: NCI-H522
HOP-92 = test system: HOP-92
Malme-3M = test system: Malme-3M
NCI-H23 = test system: NCI-H23
MOLT-4 = test system: MOLT-4
OVCAR-8 = test system: OVCAR-8
ACHN = test system: ACHN
OVCAR-3 = test system: OVCAR-3
M14 = test system: M14
IGROV-1 = test system: IGROV-1
SNB-19 = test system: SNB-19
SF-539 = test system: SF-539
SK-MEL-28 = test system: SK-MEL-28
NCI-H460 = test system: NCI-H460

Measured: GI50

COc1ccc2ccccc2c1C1OC(=O)c2ccccc21 (stereo not given)
inactive: RPMI-8226 > 100 µM | KM12 56.6 µM | COLO 205 > 100 µM | NCI-H522 63.5 µM | HOP-92 > 100 µM | Malme-3M > 100 µM | NCI-H23 > 100 µM | MOLT-4 44.2 µM | OVCAR-8 > 100 µM | ACHN > 100 µM | OVCAR-3 > 100 µM | M14 > 100 µM | IGROV-1 > 100 µM | SNB-19 > 100 µM | SF-539 > 100 µM

N#CC1=C(Cl)NC(Cl)=C(C#N)C1c1c(Cl)cccc1Cl
inactive: RPMI-8226 22.5 µM | KM12 21.8 µM | COLO 205 17.5 µM | NCI-H522 17.2 µM | HOP-92 21.4 µM | Malme-3M 46 µM | SK-MEL-28 35.2 µM | NCI-H460 18.4 µM | NCI-H23 35.9 µM | MOLT-4 32.5 µM | OVCAR-8 26.1 µM | ACHN 39.1 µM | OVCAR-3 25.1 µM | M14 38.8 µM | IGROV-1 37.9 µM | SNB-19 27.9 µM | SF-539 46 µM

CCOc1ccc(/N=C/c2ccc3ccccc3n2)cc1
inactive: RPMI-8226 > 87.1 µM | KM12 > 100 µM | COLO 205 > 100 µM | NCI-H522 > 100 µM | HOP-92 > 75.3 µM | Malme-3M > 100 µM | SK-MEL-28 > 100 µM | NCI-H460 > 100 µM | NCI-H23 > 100 µM | MOLT-4 > 100 µM | OVCAR-8 > 100 µM | ACHN > 100 µM | OVCAR-3 > 100 µM | M14 > 100 µM | IGROV-1 > 100 µM | SNB-19 > 100 µM | SF-539 > 100 µM

CC1(C)CC23C(=O)N(c4ccccc4)C(Nc4ccccc4)=NC2=CC(C#N)=C(C#N)C3O1 (stereo not given)
inactive: RPMI-8226 30.4 µM | KM12 46.6 µM | COLO 205 39.9 µM | NCI-H522 20.1 µM | HOP-92 11.2 µM | Malme-3M 46.3 µM | SK-MEL-28 > 100 µM | NCI-H460 43.8 µM | NCI-H23 34.9 µM | MOLT-4 29.3 µM | OVCAR-8 99.5 µM | ACHN 28.8 µM | OVCAR-3 > 100 µM | M14 > 100 µM | IGROV-1 > 100 µM | SNB-19 89.9 µM | SF-539 34.8 µM

Cc1c(NC(=S)NC(=O)c2ccc([N+](=O)[O-])cc2)c(=O)n(-c2ccccc2)n1C
inactive: RPMI-8226 > 100 µM | KM12 > 100 µM | COLO 205 > 100 µM | NCI-H522 > 100 µM | HOP-92 > 100 µM | Malme-3M > 100 µM | SK-MEL-28 > 100 µM | NCI-H460 > 100 µM | NCI-H23 > 100 µM | MOLT-4 > 100 µM | OVCAR-8 > 100 µM | ACHN > 100 µM | OVCAR-3 > 100 µM | M14 > 100 µM | IGROV-1 > 100 µM | SNB-19 > 100 µM | SF-539 > 100 µM

BrC1=CC=C2NCCCCCC/N=C3\C=CC(Br)=CC=C3NCCCCCC/N=C\2C=C1
inactive: RPMI-8226 > 25.5 µM | KM12 > 25.5 µM | NCI-H522 > 25.5 µM | HOP-92 > 25.5 µM | Malme-3M > 25.5 µM | SK-MEL-28 > 25.5 µM | NCI-H460 > 25.5 µM | NCI-H23 > 25.5 µM | MOLT-4 > 25.5 µM | OVCAR-8 > 25.5 µM | ACHN > 25.5 µM | OVCAR-3 > 25.5 µM | M14 > 25.5 µM | IGROV-1 > 25.5 µM | SNB-19 > 25.5 µM | SF-539 > 25.5 µM

CC1=NN(C(=O)Cc2ccccc2)C(=O)/C1=C/c1c(O)ccc2ccccc12
inactive: RPMI-8226 33.2 µM | KM12 68.5 µM | COLO 205 > 100 µM | NCI-H522 67.9 µM | Malme-3M 15.8 µM | SK-MEL-28 40.7 µM | NCI-H460 69 µM | NCI-H23 61.7 µM | MOLT-4 22.8 µM | OVCAR-8 37.2 µM | ACHN 28.1 µM | OVCAR-3 48.6 µM | M14 10 µM | SNB-19 50.8 µM | SF-539 29.2 µM

O=C1Nc2ccc([N+](=O)[O-])cc2/C1=N/Nc1ccc([N+](=O)[O-])cc1
inactive: RPMI-8226 5.09 µM | KM12 12.4 µM | COLO 205 34.7 µM | NCI-H522 17.2 µM | HOP-92 9.08 µM | SK-MEL-28 19.5 µM | NCI-H460 12.8 µM | NCI-H23 20.3 µM | MOLT-4 41.6 µM | OVCAR-8 13.8 µM | ACHN 22.3 µM | OVCAR-3 20.1 µM | M14 15.8 µM | IGROV-1 48.2 µM | SNB-19 17.6 µM | SF-539 16.1 µM
